According to a flash point compilation (Sun et al. 2020):

Row | SMILES | flash point
1 | N#CN [cyanamide] | 141.00 °C
2 | OCCBr [2-bromoethanol] | 41.00 °C
3 | Cc1ccc(CBr)cc1 [1-(bromomethyl)-4-methylbenzene] | 98.00 °C
4 | CCO[Si](CCCN)(OCC)OCC [3-triethoxysilylpropan-1-amine] | 98.00 °C
5 | CCCCOCCOCCO [2-(2-butoxyethoxy)ethanol] | 78.00 °C
6 | ClCc1ccccc1 [chloromethylbenzene] | 67.00 °C
7 | N#Cc1ccccc1C#N [benzene-1,2-dicarbonitrile] | 162.00 °C
8 | CC(=O)[O][Hg][c]1ccccc1 [acetyloxy(phenyl)mercury] | 60.00 °C
9 | C1=COCCC1 [3,4-dihydro-2H-pyran] | -18.00 °C
10 | Cc1ccc(C)c(N)c1 [2,5-dimethylaniline] | 94.00 °C
11 | CCCCN(C(C)=O)c1ccccc1 [N-butyl-N-phenylacetamide] | 141.00 °C
12 | NCCNCCO [2-(2-aminoethylamino)ethanol] | 102.00 °C
13 | C#C [acetylene] | -18.00 °C
14 | Cc1cccc([N+](=O)[O-])c1 [1-methyl-3-nitrobenzene] | 106.00 °C
15 | c1ccc(-c2ccc(-c3ccccc3)cc2)cc1 [1,4-diphenylbenzene] | 207.00 °C
16 | CCC(C)CO (stereo not drawn) [2-methylbutan-1-ol] | 50.00 °C
17 | C=CCCCC [hex-1-ene] | -26.00 °C
18 | NCCNCCNCCNCCN | 163.00 °C
19 | Cc1ccc(Br)cc1 [1-bromo-4-methylbenzene] | 85.00 °C
20 | C=Cc1ccccc1C [1-ethenyl-2-methylbenzene] | 60.00 °C
21 | CC(C)=CCC/C(C)=C/CO [(2E)-3,7-dimethylocta-2,6-dien-1-ol] | 108.00 °C
22 | Clc1ccc2ccccc2c1 [2-chloronaphthalene] | 125.00 °C
23 | O=[N+]([O-])c1ccc(-c2ccccc2)cc1 [1-nitro-4-phenylbenzene] | 143.00 °C
24 | Cc1ccc(S(=O)(=O)Cl)cc1 [4-methylbenzenesulfonyl chloride] | 128.00 °C
25 | O=CC=Cc1ccccc1 [3-phenylprop-2-enal] | 120.00 °C
26 | c1ccc(P(c2ccccc2)c2ccccc2)cc1 [triphenylphosphane] | 180.00 °C

Row | SMILES | flash point
27 | CCOP(=O)(O)O [ethyl dihydrogen phosphate] | 116.00 °C
28 | C=C(C)[C@H]1CC=C(C)C(=O)C1 [(5S)-2-methyl-5-prop-1-en-2-ylcyclohex-2-en-1-one] | 89.00 °C
29 | CCCOC(C)=O [propyl acetate] | 14.00 °C
30 | CCCC(C)C=O (stereo not drawn) [2-methylpentanal] | 20.00 °C
31 | Nc1ccc2c(c1)C(=O)c1ccccc1C2=O [2-aminoanthracene-9,10-dione] | 283.00 °C
32 | S=C1NCCN1 [imidazolidine-2-thione] | 252.00 °C
33 | CC1OC(C)OC(C)O1 (stereo not drawn) [2,4,6-trimethyl-1,3,5-trioxane] | 36.00 °C
34 | Cc1nn(C)c(Oc2ccccc2)c1/C=N/OCc1ccc(C(=O)OC(C)(C)C)cc1 | 85.00 °C
35 | N#CCCl [2-chloroacetonitrile] | 48.00 °C
36 | CCN(CC)C(=O)c1cccnc1 [N,N-diethylpyridine-3-carboxamide] | 113.00 °C
37 | CC1CCC(=O)O1 (stereo not drawn) [5-methyloxolan-2-one] | 81.00 °C
38 | C=CCCCCC [hept-1-ene] | -4.00 °C
39 | CCOC(=O)CC(=O)OCC [diethyl propanedioate] | 93.00 °C
40 | CCCCCCOC(C)=O [hexyl acetate] | 37.00 °C
41 | CCCCCCCCCCCCCCCCCC(=O)NCCNC(=O)CCCCCCCCCCCCCCCCC [N-[2-(octadecanoylamino)ethyl]octadecanamide] | 280.00 °C
42 | CC(=O)Cl [acetyl chloride] | 4.00 °C
43 | CC(=O)CC(C)(C)O [4-hydroxy-4-methylpentan-2-one] | 52.00 °C
44 | C=CC(C)(O)CCC=C(C)C (stereo not drawn) [3,7-dimethylocta-1,6-dien-3-ol] | 78.00 °C
45 | CCC(C)(C)OC(C)=O [2-methylbutan-2-yl acetate] | 26.00 °C
46 | C=CC(F)(F)C(F)(F)C(F)(F)C(F)(F)F [3,3,4,4,5,5,6,6,6-nonafluorohex-1-ene] | -17.00 °C
47 | COCCOC(C)=O [2-methoxyethyl acetate] | 44.00 °C
48 | C=C(Cl)C(Cl)CCl (stereo not drawn) [2,3,4-trichlorobut-1-ene] | 63.00 °C
49 | CC1CO1 (stereo not drawn) [2-methyloxirane] | -37.00 °C
50 | CCCCCCCCCCCC(C)=O [tridecan-2-one] | 107.00 °C
51 | OCC(O)CCl (stereo not drawn) [3-chloropropane-1,2-diol] | 59.00 °C
52 | CCC(=O)CC(C)CC (stereo not drawn) [5-methylheptan-3-one] | 43.00 °C

Row | SMILES | flash point
53 | CC(=O)C(C)=O [butane-2,3-dione] | 27.00 °C
54 | C=CC(=O)OCCCCCC(C)C [6-methylheptyl prop-2-enoate] | 91.00 °C
55 | CCCC(=O)C(C)=O [hexane-2,3-dione] | 28.00 °C
56 | c1ccccc1 [benzene] | -11.00 °C
57 | c1ccc2n[nH]nc2c1 [2H-benzotriazole] | 170.00 °C
58 | CC(C)(C)OOC(C)(C)CCC(C)(C)OOC(C)(C)C [2,5-bis(tert-butylperoxy)-2,5-dimethylhexane] | 85.00 °C
59 | CC(C)N [propan-2-amine] | -37.00 °C
60 | CCCCCCCCOC(=O)CCCCC(=O)OCCCCCCCC [dioctyl hexanedioate] | 196.00 °C
61 | C=CC(=C)CCC=C(C)C [7-methyl-3-methylideneocta-1,6-diene] | 39.00 °C
62 | CC(C)=CC(=O)C=C(C)C [2,6-dimethylhepta-2,5-dien-4-one] | 85.00 °C
63 | CCCCC(CC)CO (stereo not drawn) [2-ethylhexan-1-ol] | 81.00 °C
64 | C=CC(=O)O [prop-2-enoic acid] | 54.00 °C
65 | COCC(C)OC(C)=O (stereo not drawn) [1-methoxypropan-2-yl acetate] | 46.00 °C
66 | O=C(O)c1ccc([N+](=O)[O-])cc1 [4-nitrobenzoic acid] | 202.00 °C
67 | CCOC(=O)CC#N [ethyl 2-cyanoacetate] | 110.00 °C
68 | C=CC(=C)C [2-methylbuta-1,3-diene] | -54.00 °C
69 | C=CC(=O)OCCCC [butyl prop-2-enoate] | 49.00 °C
70 | CCCCC(CC)COP(=O)(Oc1ccccc1)Oc1ccccc1 (stereo not drawn) [2-ethylhexyl diphenyl phosphate] | 224.00 °C
71 | Cl/C=C/CCl [(E)-1,3-dichloroprop-1-ene] | 35.00 °C
72 | O=C(O)CCCCCCCCC(=O)O [decanedioic acid] | 220.00 °C
73 | OCC=CCO [but-2-ene-1,4-diol] | 128.00 °C
74 | CCCCCCCCCCCCCCCCCCOC(=O)CCCCCCCCCCCCCCC [octadecyl hexadecanoate] | 238.00 °C
75 | C=CC(=O)OCCOCCOC(=O)C=C [2-(2-prop-2-enoyloxyethoxy)ethyl prop-2-enoate] | 78.00 °C
76 | COC(O)COCCOCCOCCO (stereo not drawn) [2-[2-[2-(2-hydroxyethoxy)ethoxy]ethoxy]-1-methoxyethanol] | 161.00 °C
77 | C=COC(C)=O [ethenyl acetate] | -8.00 °C
78 | CC(C)=CCl [1-chloro-2-methylprop-1-ene] | -1.00 °C

Row | SMILES | flash point
79 | O=C1CCCCC1 [cyclohexanone] | 44.00 °C
80 | CC(=O)OCc1ccccc1 [benzyl acetate] | 91.00 °C
81 | COc1ccccc1O [2-methoxyphenol] | 74.00 °C
82 | C1CO1 [oxirane] | -18.00 °C
83 | CC(C)CCCCCCCOC(=O)c1ccccc1C(=O)OCCCCCCCC(C)C [bis(8-methylnonyl) benzene-1,2-dicarboxylate] | 232.00 °C
84 | Cc1ccc(C(C)C)c(O)c1 [5-methyl-2-propan-2-ylphenol] | 110.00 °C
85 | CC=CC(=O)O [but-2-enoic acid] | 88.00 °C
86 | Cc1ccccc1Cl [1-chloro-2-methylbenzene] | 52.00 °C
87 | CC(C)C(=O)OC(=O)C(C)C [2-methylpropanoyl 2-methylpropanoate] | 59.00 °C
88 | CC1(C)COCN1 [4,4-dimethyl-1,3-oxazolidine] | 49.00 °C
89 | CC(=O)c1ccccc1 [1-phenylethanone] | 82.00 °C
90 | Cc1ccc(N(C)C)cc1 [N,N,4-trimethylaniline] | 76.00 °C
91 | CC1=CCC2CC1C2(C)C (stereo not drawn) [2,6,6-trimethylbicyclo[3.1.1]hept-2-ene] | 33.00 °C
92 | O=P1(N(CCCl)CCCl)NCCCO1 (stereo not drawn) | 113.00 °C
93 | O=C=Nc1ccc(Cl)cc1 [1-chloro-4-isocyanatobenzene] | 110.00 °C
94 | Nc1ccccc1[N+](=O)[O-] [2-nitroaniline] | 168.00 °C
95 | CN(C)c1ccccc1 [N,N-dimethylaniline] | 63.00 °C
96 | CC(C)NC(C)C [N-propan-2-ylpropan-2-amine] | -1.00 °C
97 | CCN(CC)C(=O)c1cccc(C)c1 [N,N-diethyl-3-methylbenzamide] | 155.00 °C
98 | CC1=CC(C)(C)Nc2ccccc21 [2,2,4-trimethyl-1H-quinoline] | 101.00 °C
99 | Nc1ccc([N+](=O)[O-])cc1 [4-nitroaniline] | 199.00 °C
100 | CC1=C(C(=O)Nc2ccccc2)S(=O)(=O)CCO1 | 219.00 °C
101 | C=CCc1ccc(OC)cc1 [1-methoxy-4-prop-2-enylbenzene] | 81.00 °C
102 | BrCC1CO1 (stereo not drawn) [2-(bromomethyl)oxirane] | 56.00 °C
103 | CC(N)CO (stereo not drawn) [2-aminopropan-1-ol] | 63.00 °C
